Experimental data from PubChem BioAssay (NCI).
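Exposure lasted 48 hours, with cells grown in 96-well plates and compounds tested at five concentrations. TGI marks complete inhibition of growth.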

How the values were obtained:
Assay in all cases: NCI tumour cell line growth inhibition, 48 h
786-0 renal = tested on: 786-0 renal
A549 NSCLC = tested on: A549 NSCLC
ACHN renal = tested on: ACHN renal
BT-549 breast = tested on: BT-549 breast
CCRF-CEM leukemia = tested on: CCRF-CEM leukemia
COLO 205 colon = tested on: COLO 205 colon
DU-145 prostate = tested on: DU-145 prostate
EKVX NSCLC = tested on: EKVX NSCLC
HCC-2998 colon = tested on: HCC-2998 colon
HCT-116 colon = tested on: HCT-116 colon
HCT-15 colon = tested on: HCT-15 colon
HL-60(TB) leukemia = tested on: HL-60(TB) leukemia
HOP-62 NSCLC = tested on: HOP-62 NSCLC
HS 578T breast = tested on: HS 578T breast
HT29 colon = tested on: HT29 colon
IGROV1 ovarian = tested on: IGROV1 ovarian
K-562 leukemia = tested on: K-562 leukemia
KM12 colon = tested on: KM12 colon
LOX IMVI melanoma = tested on: LOX IMVI melanoma
MALME-3M melanoma = tested on: MALME-3M melanoma
MCF7 breast = tested on: MCF7 breast
MDA-MB-231 breast = tested on: MDA-MB-231 breast
MDA-MB-435 = tested on: MDA-MB-435
MDA-N = tested on: MDA-N
MOLT-4 leukemia = tested on: MOLT-4 leukemia
NCI-H23 lung = tested on: NCI-H23 lung
NCI-H460 lung = tested on: NCI-H460 lung
NCI-H522 lung = tested on: NCI-H522 lung
NCI/ADR-RES ovarian = tested on: NCI/ADR-RES ovarian
OVCAR-3 ovarian = tested on: OVCAR-3 ovarian
OVCAR-5 ovarian = tested on: OVCAR-5 ovarian
OVCAR-8 ovarian = tested on: OVCAR-8 ovarian
PC-3 prostate = tested on: PC-3 prostate
RPMI-8226 leukemia = tested on: RPMI-8226 leukemia
RXF 393 renal = tested on: RXF 393 renal
SF-268 CNS = tested on: SF-268 CNS
SF-295 CNS = tested on: SF-295 CNS
SF-539 CNS = tested on: SF-539 CNS
SK-MEL-2 melanoma = tested on: SK-MEL-2 melanoma
SK-MEL-28 melanoma = tested on: SK-MEL-28 melanoma
SK-MEL-5 melanoma = tested on: SK-MEL-5 melanoma
SN12C renal = tested on: SN12C renal
SNB-19 CNS = tested on: SNB-19 CNS
SNB-75 CNS = tested on: SNB-75 CNS
SR leukemia = tested on: SR leukemia
SW-620 colon = tested on: SW-620 colon
TK-10 renal = tested on: TK-10 renal
U251 CNS = tested on: U251 CNS
UACC-257 melanoma = tested on: UACC-257 melanoma
UACC-62 melanoma = tested on: UACC-62 melanoma
UO-31 renal = tested on: UO-31 renal
CAKI-1 renal = tested on: CAKI-1 renal
HOP-92 NSCLC = tested on: HOP-92 NSCLC
M14 melanoma = tested on: M14 melanoma
NCI-H226 lung = tested on: NCI-H226 lung
OVCAR-4 ovarian = tested on: OVCAR-4 ovarian
SK-OV-3 ovarian = tested on: SK-OV-3 ovarian

## Cc1cccc2cc3c(ccc4ccccc43)c[n+]12
786-0 renal
  TGI: > 100 µM
A549 NSCLC
  TGI: > 100 µM
ACHN renal
  TGI: > 100 µM
BT-549 breast
  TGI: 54.1 µM
CCRF-CEM leukemia
  TGI: > 100 µM
COLO 205 colon
  TGI: 31.6 µM
DU-145 prostate
  TGI: > 100 µM
EKVX NSCLC
  TGI: > 100 µM
HCC-2998 colon
  TGI: 42.7 µM
HCT-116 colon
  TGI: > 100 µM
HCT-15 colon
  TGI: > 100 µM
HL-60(TB) leukemia
  TGI: > 100 µM
HOP-62 NSCLC
  TGI: > 100 µM
HS 578T breast
  TGI: 24.6 µM
HT29 colon
  TGI: > 100 µM
IGROV1 ovarian
  TGI: > 100 µM
K-562 leukemia
  TGI: > 100 µM
KM12 colon
  TGI: 32 µM
LOX IMVI melanoma
  TGI: > 100 µM
MALME-3M melanoma
  TGI: 5.22 µM
MCF7 breast
  TGI: > 100 µM
MDA-MB-231 breast
  TGI: > 100 µM
MDA-MB-435
  TGI: > 100 µM
MDA-N
  TGI: > 100 µM
MOLT-4 leukemia
  TGI: > 100 µM
NCI-H23 lung
  TGI: 58 µM
NCI-H460 lung
  TGI: 93.7 µM
NCI-H522 lung
  TGI: 38.2 µM
NCI/ADR-RES ovarian
  TGI: > 100 µM
OVCAR-3 ovarian
  TGI: 16.9 µM
OVCAR-5 ovarian
  TGI: > 100 µM
OVCAR-8 ovarian
  TGI: > 100 µM
PC-3 prostate
  TGI: > 100 µM
RPMI-8226 leukemia
  TGI: > 100 µM
RXF 393 renal
  TGI: > 100 µM
SF-268 CNS
  TGI: 14.2 µM
SF-295 CNS
  TGI: 41.5 µM
SF-539 CNS
  TGI: 66.2 µM
SK-MEL-2 melanoma
  TGI: 48.3 µM
SK-MEL-28 melanoma
  TGI: 34.3 µM
SK-MEL-5 melanoma
  TGI: 22.1 µM
SN12C renal
  TGI: 20.3 µM
SNB-19 CNS
  TGI: 50.9 µM
SNB-75 CNS
  TGI: 21.8 µM
SR leukemia
  TGI: > 100 µM
SW-620 colon
  TGI: > 100 µM
TK-10 renal
  TGI: > 100 µM
U251 CNS
  TGI: 40.6 µM
UACC-257 melanoma
  TGI: 37.9 µM
UACC-62 melanoma
  TGI: 63.1 µM
UO-31 renal
  TGI: > 100 µM

## Nc1ccc(-c2cssc2=S)cc1
786-0 renal
  TGI: > 100 µM
A549 NSCLC
  TGI: > 100 µM
ACHN renal
  TGI: > 100 µM
BT-549 breast
  TGI: > 100 µM
CAKI-1 renal
  TGI: > 100 µM
COLO 205 colon
  TGI: > 100 µM
EKVX NSCLC
  TGI: > 100 µM
HCC-2998 colon
  TGI: > 100 µM
HCT-116 colon
  TGI: > 100 µM
HCT-15 colon
  TGI: > 100 µM
HL-60(TB) leukemia
  TGI: 62.5 µM
HOP-62 NSCLC
  TGI: > 100 µM
HOP-92 NSCLC
  TGI: > 100 µM
HS 578T breast
  TGI: > 100 µM
HT29 colon
  TGI: > 100 µM
IGROV1 ovarian
  TGI: > 100 µM
K-562 leukemia
  TGI: > 100 µM
KM12 colon
  TGI: > 100 µM
LOX IMVI melanoma
  TGI: > 100 µM
M14 melanoma
  TGI: > 100 µM
MALME-3M melanoma
  TGI: > 100 µM
MCF7 breast
  TGI: > 100 µM
MDA-MB-231 breast
  TGI: > 100 µM
MDA-MB-435
  TGI: > 100 µM
MDA-N
  TGI: > 100 µM
MOLT-4 leukemia
  TGI: > 100 µM
NCI-H226 lung
  TGI: > 100 µM
NCI-H460 lung
  TGI: > 100 µM
NCI-H522 lung
  TGI: > 100 µM
NCI/ADR-RES ovarian
  TGI: > 100 µM
OVCAR-4 ovarian
  TGI: > 100 µM
OVCAR-5 ovarian
  TGI: > 100 µM
OVCAR-8 ovarian
  TGI: > 100 µM
PC-3 prostate
  TGI: > 100 µM
RPMI-8226 leukemia
  TGI: 5.65 µM
RXF 393 renal
  TGI: > 100 µM
SF-268 CNS
  TGI: > 100 µM
SF-295 CNS
  TGI: > 100 µM
SF-539 CNS
  TGI: > 100 µM
SK-MEL-2 melanoma
  TGI: 77 µM
SK-MEL-28 melanoma
  TGI: > 100 µM
SK-MEL-5 melanoma
  TGI: > 100 µM
SK-OV-3 ovarian
  TGI: > 100 µM
SN12C renal
  TGI: 94.6 µM
SNB-19 CNS
  TGI: > 100 µM
SW-620 colon
  TGI: > 100 µM
TK-10 renal
  TGI: > 100 µM
U251 CNS
  TGI: > 100 µM
UACC-257 melanoma
  TGI: > 100 µM
UACC-62 melanoma
  TGI: 94.9 µM
UO-31 renal
  TGI: > 100 µM
